Patent US12031897B2, “Target-locking single-molecule nanoscopy” (Memorial Sloan Kettering Cancer Center, priority 2019, dated 2024)

What was measured:
[1] = test system: CMV mini-gene transcription site (tdPCP-EGFP nascent RNA); assay: tdPCP-EGFP nascent transcription dynamics at the CMV mini-gene after inhibitor addition (wide-field live-cell imaging); assay type: cell-based, human; conditions: U-2 OS cells, after adding 10 μM flavopiridol or 10 μM triptolide, individual transcription site traces, mean±S.D.
From the text: It can be observed that Pol II accumulates at sites of active nascent transcription. Example implementations may first image Pol II dynamics relative to transcription from a single promoter in a synthetic “mini-gene” system, stably integrated as single copies in U-2 OS cells (FIGS. 4A, 11A-11C). Example implementations may track nascent RNA production via phage PP7-derived stem-loops (24×PP7) and a tandem-dimer phage coat protein EGFP fusion (tdPCP-EGFP).
It can be observed in various embodiments that target-locking enables tracking Pol II dynamics during the transcription cycle. […]
Wide-Field Cell Imaging Experiments. […] The CCD data were analyzed using IDL 6.4 (ITTVIS). Maximum projection images were calculated for each stack, and the resulting 11 sec/frame movie was used to track the intensities of individual tdPCP-EGFP-tagged transcription sites. […] The auto-correlation function was calculated (for the tdPCP-EGFP fluctuation analysis), or the data were imported in Origin 8.5.0 (OriginLab) and the trace fitted to a single-exponential decay (for the transcription inhibition experiments).

[2] = test system: SiR-Rpb1 (Pol II) in the nucleus of U2-OS cells; assay: SiR-Rpb1 FRAP in the nucleus of clone 5 cells; assay type: cell-based, human; conditions: after ~30-40 minutes incubation with 10 μM Flavopiridol
From the text: Live cell imaging experiments (SiR-Rpb1 FRAP). For SiR-Rpb1 FRAP experiments, time lapse images were acquired at 1 fps at a focal point adjusted at the mid-plane of the nucleus. To bleach molecules at a spot in the nucleus, an iris was used to block all but a small circle in the center of the excitation beam, the dynamic diffuser was removed and ˜[…] 642 nm laser power was applied for ˜10 seconds. Then, the 642 nm laser power was reduced to ˜7 W/μm2, the diffuser was put back in the optical path (resulting in additional drop in the power reaching the sample), the iris was removed and time-lapse acquisition continued. The recovery trace of SiR-Rpb1 at the bleached spot was corrected for photobleaching using the intensity of nearby (non-photobleached) regions in the nucleus.
Quantification of signal (S) and immobile background (Bi) at the transcription site. […] This behavior reflects gradual photobleaching of Pol II molecules residing within the excitation volume during the measurement and a constant background of molecules rapidly diffusing in and out. […] The Bi/Bd ratio is also consistent with: (i) Fluorescence Recovery After Photobleaching (FRAP) measurements at random nuclear locations (FIGS. 11K, 11L), showing that ˜40% of total Pol II is immobile (recovery time ˜20 min) and likely transcriptionally engaged; (ii) previous GFP-Pol II FRAP results in a related system.

Compound | tdPCP-EGFP exponential decay time [1] [s] | slow-recovering immobile Pol II population (FRAP) ([2]; ~40% in absence of Flavopiridol) | fast FRAP recovery of SiR-Rpb1 ([2]; ~60% in absence)
CC(C)[C@]12O[C@H]1[C@@H]1O[C@]13[C@]1(O[C@H]1C[C@H]1C4=C(CC[C@@]13C)C(=O)OC4)[C@@H]2O [triptolide] | 179 ± 57 |  | 
CN1CC[C@H](c2c(O)cc(O)c3c(=O)cc(-c4ccccc4Cl)oc23)[C@H](O)C1 [flavopiridol] | 132 ± 38 | 10-15% | 85-90%
